Measured values as given in patent US20110098177A1, “METHODS AND COMPOSITIONS OF PLANT MICRONUTRIENTS” (NOVUS INTERNATIONAL INC., priority 2006, published 2011).
Entries after “also recorded” stand apart in the source; their conditions may differ.

Key:
Assay type in all cases: in vivo
[1] = tested on: Patriot bell pepper plants; assay: Foliar nutrient concentration at 6 WAT, open-field bell pepper (Examples 7-10); settings: 6 WAT, open field; for Foliar B concentration of bell pepper plants / Foliar Ca concentration of bell pepper plants / Foliar Cu concentration of bell pepper plants / Foliar Fe concentration of bell pepper plants / Foliar K concentration of bell pepper plants / Foliar Mg concentration of bell pepper plants / Foliar Mn concentration of bell pepper plants / Foliar N concentration of bell pepper plants / Foliar P concentration of bell pepper plants / Foliar Zn concentration of bell pepper plants: product rate as Table 17
Method in brief: (§1)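 Open-field 2008 trial, Balm FL; 'Tygress' tomato and 'Patriot' pepper transplants on drip-fed raised beds. Foliar micronutrient sprays at 3 and 5 WAT (BIOX-CM at 4 and 5), 60 gal/acre with surfactant. Youngest mature leaves sampled 6 WAT; RCBD, 5 replications, Fisher's LSD 5%.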

Tygress tomato plants [2] = assay: Nutrient concentration of tomato fruits at 10 WAT, open field (Examples 7-10); settings: 10 WAT; open field; product rate as Table 17
Method in brief: as §1

Tygress tomato plants [3] = assay: Foliar nutrient concentration at 6 WAT, open-field tomato (Examples 7-10); settings: 6 WAT, open field; for Foliar B concentration of tomato plants / Foliar Ca concentration of tomato plants / Foliar Cu concentration of tomato plants / Foliar Fe concentration of tomato plants / Foliar K concentration of tomato plants / Foliar Mg concentration of tomato plants / Foliar Mn concentration of tomato plants / Foliar N concentration of tomato plants / Foliar P concentration of tomato plants / Foliar Zn concentration of tomato plants: product rate as Table 17
Method in brief: as §1

Tygress tomato plants [4] = assay: Marketable yield, open-field tomato (Examples 7-10); settings: open field; for Marketable yield, Tomato: lb/acre/season: BIOX-Z 1.3, Cu 6.7, M 23.0, Fe 3.2, INC 4.0, INZ 0.6, CM 10.0, GZ 1.0, GF 4.0, EDZ 1.4, EDM 23.0
Method in brief: as §1

Tygress tomato plants [5] = assay: Foliar nutrient concentration 2 weeks after treatment, greenhouse tomato (Examples 4-6); settings: for B concentration in tomato leaves / Ca concentration in tomato leaves / Cu concentration in tomato leaves / Fe concentration in tomato leaves / K concentration in tomato leaves / Mg concentration in tomato leaves / Mn concentration in tomato leaves / N concentration in tomato leaves / P concentration in tomato leaves: 2 weeks after Zn treatment; for Foliar Zn concentration: tomato leaves 2 weeks after Zn treatment
Method in brief: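 Tygress tomato in 2-gallon pots of micronutrient-poor medium (negligible Fe, Zn, Mn, Cu) in greenhouse; foliar treatments at 5 WAT in 200 mL/plant water with non-ionic surfactant. Newest non-applied leaves analysed 2 weeks before and after treatment; marketable fruit harvested three times from 10 WAT, graded. RCBD, 6 replications, LSD 5%.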

[6] = tested on: Patriot bell pepper plants; assay: Marketable yield, open-field bell pepper (Examples 7-10); settings: open field; lb/acre/season: BIOX-Z 1.3, Cu 6.7, M 23.0, Fe 3.2, INC 4.0, INZ 0.6, CM 10.0, GZ 1.0, GF 4.0, EDZ 1.4, EDM 23.0
Method in brief: as §1

CSCCC(O)C(=O)[O-].CSCCC(O)C(=O)[O-].[Zn+2] (stereo not shown) [BIOX-Z, Zn-HMTBA]
Foliar Zn concentration of bell pepper plants compared to control, statement [1]: significantly higher foliar concentration of Zn
Foliar B concentration of bell pepper plants [1]: 62 ppm
Foliar Ca concentration of bell pepper plants [1]: 4.4%
Foliar Cu concentration of bell pepper plants [1]: 387 ppm
Foliar Fe concentration of bell pepper plants [1]: 121 ppm
Foliar K concentration of bell pepper plants [1]: 3.7%
Foliar Mg concentration of bell pepper plants [1]: 0.50%
Foliar Mn concentration of bell pepper plants [1]: 240 ppm
Foliar N concentration of bell pepper plants [1]: 4.2%
Foliar P concentration of bell pepper plants [1]: 0.25%
Foliar Zn concentration of bell pepper plants [1]: 220 a ppm
B concentration of tomato fruits (Tygress tomato plants [2]): 20 ppm
Ca concentration of tomato fruits (Tygress tomato plants [2]): 0.2%
Cu concentration of tomato fruits (Tygress tomato plants [2]): 21 ppm
Fe concentration of tomato fruits (Tygress tomato plants [2]): 82 ppm
K concentration of tomato fruits (Tygress tomato plants [2]): 8.0%
Mg concentration of tomato fruits (Tygress tomato plants [2]): 0.36%
Mn concentration of tomato fruits (Tygress tomato plants [2]): 38 ppm
N concentration of tomato fruits (Tygress tomato plants [2]): 4.3%
P concentration of tomato fruits (Tygress tomato plants [2]): 0.63%
Zn concentration of tomato fruits (Tygress tomato plants [2]): 308 ppm
Foliar Zn concentration of tomato plants, statement (Tygress tomato plants [3]): highest foliar concentration of Zn; also recorded: significantly higher foliar Zn content
Foliar B concentration of tomato plants (Tygress tomato plants [3]): 59 ppm
Foliar Ca concentration of tomato plants (Tygress tomato plants [3]): 2.2%
Foliar Cu concentration of tomato plants (Tygress tomato plants [3]): 338 ppm
Foliar Fe concentration of tomato plants (Tygress tomato plants [3]): 76 ppm
Foliar K concentration of tomato plants (Tygress tomato plants [3]): 5.5%
Foliar Mg concentration of tomato plants (Tygress tomato plants [3]): 0.78%
Foliar Mn concentration of tomato plants (Tygress tomato plants [3]): 198 ppm
Foliar N concentration of tomato plants (Tygress tomato plants [3]): 4.7%
Foliar P concentration of tomato plants (Tygress tomato plants [3]): 0.21%
Foliar Zn concentration of tomato plants (Tygress tomato plants [3]): 434 a ppm
Tomato marketable yield compared to control, statement (Tygress tomato plants [4]): significantly higher than the control tomato harvest; also recorded: higher marketable yield compared to control
Marketable yield, Tomato (Tygress tomato plants [4]): 17.5 ton/acre
Foliar Zn concentration compared with control (in words) (Tygress tomato plants [5]; 0.8 lb/acre, 2 weeks after application): significantly higher than control
B concentration in tomato leaves (Tygress tomato plants [5]; Zn 0.1 lb/acre): 25 ppm
Ca concentration in tomato leaves (Tygress tomato plants [5]; Zn 0.1 lb/acre): 0.6%
Cu concentration in tomato leaves (Tygress tomato plants [5]; Zn 0.1 lb/acre): 8 ppm
Fe concentration in tomato leaves (Tygress tomato plants [5]; Zn 0.1 lb/acre): 98 ppm
K concentration in tomato leaves (Tygress tomato plants [5]; Zn 0.1 lb/acre): 3.5%
Mg concentration in tomato leaves (Tygress tomato plants [5]; Zn 0.1 lb/acre): 0.3%
Mn concentration in tomato leaves (Tygress tomato plants [5]; Zn 0.1 lb/acre): 55 ppm
N concentration in tomato leaves (Tygress tomato plants [5]; Zn 0.1 lb/acre): 3.6%
P concentration in tomato leaves (Tygress tomato plants [5]; Zn 0.1 lb/acre): 0.5%
Foliar Zn concentration (Tygress tomato plants [5]; Zn 0.1 lb/acre): 86 bc ppm
B concentration in tomato leaves (Tygress tomato plants [5]; Zn 0.2 lb/acre): 27 ppm
Ca concentration in tomato leaves (Tygress tomato plants [5]; Zn 0.2 lb/acre): 0.6%
Cu concentration in tomato leaves (Tygress tomato plants [5]; Zn 0.2 lb/acre): 6 ppm
Fe concentration in tomato leaves (Tygress tomato plants [5]; Zn 0.2 lb/acre): 88 ppm
K concentration in tomato leaves (Tygress tomato plants [5]; Zn 0.2 lb/acre): 3.7%
Mg concentration in tomato leaves (Tygress tomato plants [5]; Zn 0.2 lb/acre): 0.3%
Mn concentration in tomato leaves (Tygress tomato plants [5]; Zn 0.2 lb/acre): 56 ppm
N concentration in tomato leaves (Tygress tomato plants [5]; Zn 0.2 lb/acre): 3.3%
P concentration in tomato leaves (Tygress tomato plants [5]; Zn 0.2 lb/acre): 0.5%
Foliar Zn concentration (Tygress tomato plants [5]; Zn 0.2 lb/acre): 112 bc ppm
B concentration in tomato leaves (Tygress tomato plants [5]; Zn 0.4 lb/acre): 28 ppm
Ca concentration in tomato leaves (Tygress tomato plants [5]; Zn 0.4 lb/acre): 0.6%
Cu concentration in tomato leaves (Tygress tomato plants [5]; Zn 0.4 lb/acre): 6 ppm
Fe concentration in tomato leaves (Tygress tomato plants [5]; Zn 0.4 lb/acre): 88 ppm
K concentration in tomato leaves (Tygress tomato plants [5]; Zn 0.4 lb/acre): 3.5%
Mg concentration in tomato leaves (Tygress tomato plants [5]; Zn 0.4 lb/acre): 0.3%
Mn concentration in tomato leaves (Tygress tomato plants [5]; Zn 0.4 lb/acre): 59 ppm
N concentration in tomato leaves (Tygress tomato plants [5]; Zn 0.4 lb/acre): 3.4%
P concentration in tomato leaves (Tygress tomato plants [5]; Zn 0.4 lb/acre): 0.5%
Foliar Zn concentration (Tygress tomato plants [5]; Zn 0.4 lb/acre): 128 bc ppm
B concentration in tomato leaves (Tygress tomato plants [5]; Zn 0.8 lb/acre): 25 ppm
Ca concentration in tomato leaves (Tygress tomato plants [5]; Zn 0.8 lb/acre): 0.5%
Cu concentration in tomato leaves (Tygress tomato plants [5]; Zn 0.8 lb/acre): 4 ppm
Fe concentration in tomato leaves (Tygress tomato plants [5]; Zn 0.8 lb/acre): 93 ppm
K concentration in tomato leaves (Tygress tomato plants [5]; Zn 0.8 lb/acre): 3.4%
Mg concentration in tomato leaves (Tygress tomato plants [5]; Zn 0.8 lb/acre): 0.3%
Mn concentration in tomato leaves (Tygress tomato plants [5]; Zn 0.8 lb/acre): 54 ppm
N concentration in tomato leaves (Tygress tomato plants [5]; Zn 0.8 lb/acre): 3.5%
P concentration in tomato leaves (Tygress tomato plants [5]; Zn 0.8 lb/acre): 0.5%
Foliar Zn concentration (Tygress tomato plants [5]; Zn 0.8 lb/acre): 500 ab ppm
Marketable yield, Bell Pepper [6]: 8.4 ton/acre

EDTA chelated zinc [BIOX-EDZ]
Foliar Zn concentration of bell pepper plants compared to control, statement [1]: significantly higher foliar concentration of Zn
Foliar B concentration of bell pepper plants [1]: 59 ppm
Foliar Ca concentration of bell pepper plants [1]: 4.2%
Foliar Cu concentration of bell pepper plants [1]: 421 ppm
Foliar Fe concentration of bell pepper plants [1]: 121 ppm
Foliar K concentration of bell pepper plants [1]: 3.2%
Foliar Mg concentration of bell pepper plants [1]: 0.47%
Foliar Mn concentration of bell pepper plants [1]: 284 ppm
Foliar N concentration of bell pepper plants [1]: 4.2%
Foliar P concentration of bell pepper plants [1]: 0.24%
Foliar Zn concentration of bell pepper plants [1]: 234 a ppm
B concentration of tomato fruits (Tygress tomato plants [2]): 22 ppm
Ca concentration of tomato fruits (Tygress tomato plants [2]): 0.2%
Cu concentration of tomato fruits (Tygress tomato plants [2]): 23 ppm
Fe concentration of tomato fruits (Tygress tomato plants [2]): 82 ppm
K concentration of tomato fruits (Tygress tomato plants [2]): 8.5%
Mg concentration of tomato fruits (Tygress tomato plants [2]): 0.37%
Mn concentration of tomato fruits (Tygress tomato plants [2]): 43 ppm
N concentration of tomato fruits (Tygress tomato plants [2]): 4.4%
P concentration of tomato fruits (Tygress tomato plants [2]): 0.66%
Zn concentration of tomato fruits (Tygress tomato plants [2]): 1018 ppm
Foliar Zn concentration of tomato plants, statement (Tygress tomato plants [3]): All treatments except BIOX-EDZ resulted in significantly higher foliar Zn concentrations
Foliar B concentration of tomato plants (Tygress tomato plants [3]): 44 ppm
Foliar Ca concentration of tomato plants (Tygress tomato plants [3]): 1.9%
Foliar Cu concentration of tomato plants (Tygress tomato plants [3]): 371 ppm
Foliar Fe concentration of tomato plants (Tygress tomato plants [3]): 90 ppm
Foliar K concentration of tomato plants (Tygress tomato plants [3]): 5.2%
Foliar Mg concentration of tomato plants (Tygress tomato plants [3]): 0.69%
Foliar Mn concentration of tomato plants (Tygress tomato plants [3]): 207 ppm
Foliar N concentration of tomato plants (Tygress tomato plants [3]): 4.9%
Foliar P concentration of tomato plants (Tygress tomato plants [3]): 0.24%
Foliar Zn concentration of tomato plants (Tygress tomato plants [3]): 310 bc ppm
Tomato marketable yield compared to control, statement (Tygress tomato plants [4]): significantly higher than the control tomato harvest
Marketable yield, Tomato (Tygress tomato plants [4]): 16.2 ton/acre
B concentration in tomato leaves (Tygress tomato plants [5]; Zn 0.4 lb/acre): 21 ppm
Ca concentration in tomato leaves (Tygress tomato plants [5]; Zn 0.4 lb/acre): 0.6%
Cu concentration in tomato leaves (Tygress tomato plants [5]; Zn 0.4 lb/acre): 7 ppm
Fe concentration in tomato leaves (Tygress tomato plants [5]; Zn 0.4 lb/acre): 95 ppm
K concentration in tomato leaves (Tygress tomato plants [5]; Zn 0.4 lb/acre): 3.6%
Mg concentration in tomato leaves (Tygress tomato plants [5]; Zn 0.4 lb/acre): 0.3%
Mn concentration in tomato leaves (Tygress tomato plants [5]; Zn 0.4 lb/acre): 54 ppm
N concentration in tomato leaves (Tygress tomato plants [5]; Zn 0.4 lb/acre): 3.6%
P concentration in tomato leaves (Tygress tomato plants [5]; Zn 0.4 lb/acre): 0.5%
Foliar Zn concentration (Tygress tomato plants [5]; Zn 0.4 lb/acre): 214.bc ppm
Marketable yield, Bell Pepper [6]: 8.1 ton/acre
